Measured values as given in patent US20230310428A1, “EGFR INHIBITOR AND PREPARATION METHOD AND USE THEREOF” (HONGYUN BIOTECH CO., LTD., priority 2020, published 2023).
Like-named read-outs stand apart in the source and are kept apart here.

Legend:
Assay in all cases: Growth inhibitory activity of compounds on BaF3 cell lines stably transfected with kinase (MTS, 48 h)
Format in all cases: cell-based
[1] = target: T1, various mutants of kinase EGFR (BaF3 cell lines stably transfected with kinase) (Homo sapiens, UniProt P00533, C797S/L858R/T790M)
T1 construct: expressed in transfected cells; host or cells: BaF3
T1 sequence (P00533 25-1210 T790M/C797S/L858R): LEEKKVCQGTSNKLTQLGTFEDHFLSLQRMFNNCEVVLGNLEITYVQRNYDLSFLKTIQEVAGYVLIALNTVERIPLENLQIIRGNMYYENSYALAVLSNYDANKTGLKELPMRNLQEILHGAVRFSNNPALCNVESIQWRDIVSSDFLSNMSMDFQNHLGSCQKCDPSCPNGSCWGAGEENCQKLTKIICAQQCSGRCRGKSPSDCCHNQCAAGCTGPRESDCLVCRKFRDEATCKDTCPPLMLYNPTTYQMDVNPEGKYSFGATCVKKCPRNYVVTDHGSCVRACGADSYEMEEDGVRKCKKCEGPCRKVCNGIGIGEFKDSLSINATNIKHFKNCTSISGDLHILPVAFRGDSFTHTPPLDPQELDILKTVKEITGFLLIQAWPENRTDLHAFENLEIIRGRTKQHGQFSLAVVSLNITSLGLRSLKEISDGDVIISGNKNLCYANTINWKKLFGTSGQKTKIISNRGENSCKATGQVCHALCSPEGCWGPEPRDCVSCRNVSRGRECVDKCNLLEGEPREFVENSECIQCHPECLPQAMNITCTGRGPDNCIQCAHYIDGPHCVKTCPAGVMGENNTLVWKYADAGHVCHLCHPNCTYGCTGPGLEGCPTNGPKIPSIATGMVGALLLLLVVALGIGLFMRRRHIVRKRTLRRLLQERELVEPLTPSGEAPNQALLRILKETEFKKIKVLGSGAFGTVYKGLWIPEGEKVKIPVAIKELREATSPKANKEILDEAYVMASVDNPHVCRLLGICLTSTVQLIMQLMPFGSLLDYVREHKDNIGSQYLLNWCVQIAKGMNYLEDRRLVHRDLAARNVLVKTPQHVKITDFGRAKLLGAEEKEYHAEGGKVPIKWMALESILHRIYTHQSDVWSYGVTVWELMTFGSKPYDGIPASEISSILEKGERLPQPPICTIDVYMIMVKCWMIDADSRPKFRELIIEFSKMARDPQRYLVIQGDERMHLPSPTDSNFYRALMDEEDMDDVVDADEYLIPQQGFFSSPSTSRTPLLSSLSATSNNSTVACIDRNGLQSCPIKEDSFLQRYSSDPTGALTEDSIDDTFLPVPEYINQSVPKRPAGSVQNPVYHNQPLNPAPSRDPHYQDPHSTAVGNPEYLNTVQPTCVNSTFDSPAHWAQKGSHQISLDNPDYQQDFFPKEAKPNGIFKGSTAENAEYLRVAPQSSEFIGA
Procedure: (§1) The activity of compounds against various mutants of kinase EGFR was evaluated by their effect of inhibiting growth of BaF3 cell lines stably transfected with kinase. The specific test method was given as follows:
(§2) 1) Culture medium: DMEM (Dulbecco’s modified eagle medium) or RPMI 1640 (containing 10% fetal bovine serum, 100 µg/mL ampicillin, 100 µg/mL streptomycin).
(§3) 2) Reagent: MTS reaction solution (containing 2 mg/mL of MTS [3-(4,5-dimethylthiazol-2-yl)-5-(3-carboxymethoxyphenyl)-2-(4-sulfophenyl)-2H-tetrazoliu m, inner Salt]; 100 µg/mL of PES ([…])).
(§4) 3) Compound test: cells were incubated into a 96-well culture plate, the volume of cytosol was 90 µL, and then 10 µL of the compound at each gradient concentration was added. That is, the highest concentration was 10 µM, which was diluted stepwise by ⅓, and 8 concentration points were set in total; 0.1% DMSO (dimethyl sulfoxide) was contained in the system. The cell plate with uniformly mixed compound was cultured in a cell culture incubator (37° C.; 5% CO2) for 48 h, then 20 µL of MTS reaction solution was added, uniformly mixed and incubated in the cell culture incubator (37° C.; 5% CO2) for 1-4 h. OD values at 490 nm were measured by a microplate reader (VARIOSKAN FLASH, Thermo). Two parallels were set in each group of experiments, with 0.1% (a final concentration) DMSO as a negative control, and a culture medium without cells and compounds as a blank control. The cell growth inhibition rate was calculated by the following formula: […]
(§5) 4) IC50 calculation: The semi-inhibitory concentration of the compounds acting on cells was calculated using GradPad Prism 5 software according to the measured cell growth inhibition rate.

[2] = target: T2, various mutants of kinase EGFR (BaF3 cell lines stably transfected with kinase) (Homo sapiens, UniProt P00533)
T2 construct: other: BaF3 cells stably transfected with EGFR Δ19Del; MTS, 48 h; other: BaF3 cell line stably transfected with EGFR Δ19Del
T2 sequence (P00533 with tags, fused parts or gaps DEL746-750): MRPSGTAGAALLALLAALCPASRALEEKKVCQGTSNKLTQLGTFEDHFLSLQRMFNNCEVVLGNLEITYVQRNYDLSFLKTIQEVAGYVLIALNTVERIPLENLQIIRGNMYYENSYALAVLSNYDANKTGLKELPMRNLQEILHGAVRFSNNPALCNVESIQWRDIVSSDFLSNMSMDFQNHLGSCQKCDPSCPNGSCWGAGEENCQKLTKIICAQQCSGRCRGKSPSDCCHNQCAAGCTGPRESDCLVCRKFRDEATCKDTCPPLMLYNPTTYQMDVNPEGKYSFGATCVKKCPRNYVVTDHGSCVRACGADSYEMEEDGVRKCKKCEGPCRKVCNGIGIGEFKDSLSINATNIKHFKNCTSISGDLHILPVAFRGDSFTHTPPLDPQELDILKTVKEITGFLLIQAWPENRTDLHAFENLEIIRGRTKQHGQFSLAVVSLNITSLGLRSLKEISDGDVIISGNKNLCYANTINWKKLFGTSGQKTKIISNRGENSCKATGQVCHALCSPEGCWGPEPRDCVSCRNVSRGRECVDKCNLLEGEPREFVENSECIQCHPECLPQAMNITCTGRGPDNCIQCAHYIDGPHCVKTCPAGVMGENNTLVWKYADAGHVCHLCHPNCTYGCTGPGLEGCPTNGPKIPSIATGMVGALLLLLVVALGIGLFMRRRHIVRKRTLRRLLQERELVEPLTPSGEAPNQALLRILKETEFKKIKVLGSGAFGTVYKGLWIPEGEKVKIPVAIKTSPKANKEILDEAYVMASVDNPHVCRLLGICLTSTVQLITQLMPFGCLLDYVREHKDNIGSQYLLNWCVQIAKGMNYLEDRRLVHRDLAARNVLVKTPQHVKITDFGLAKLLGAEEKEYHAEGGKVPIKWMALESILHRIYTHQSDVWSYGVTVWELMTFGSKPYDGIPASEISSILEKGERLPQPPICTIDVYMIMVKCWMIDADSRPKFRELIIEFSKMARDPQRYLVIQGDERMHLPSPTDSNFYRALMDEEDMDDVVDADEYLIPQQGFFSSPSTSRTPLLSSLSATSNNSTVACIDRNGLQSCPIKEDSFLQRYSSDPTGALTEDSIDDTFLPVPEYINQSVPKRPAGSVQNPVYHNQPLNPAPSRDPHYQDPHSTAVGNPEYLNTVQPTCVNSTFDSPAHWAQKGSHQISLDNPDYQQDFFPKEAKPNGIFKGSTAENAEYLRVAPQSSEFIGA
Procedure: as §1, §2, §3, §4, §5

[3] = target: T3, various mutants of kinase EGFR (BaF3 cell lines stably transfected with kinase) (Homo sapiens, UniProt P00533, T790M/C797S, form not given)
T3 construct: other: BaF3 cells stably transfected with EGFR Δ19Del/T790M/C797S; MTS, 48; other: BaF3 cell line stably transfected with EGFR Δ19Del/T790M/C7
Procedure: as §1, §2, §3, §4, §5

[4] = target: T4, various mutants of kinase EGFR (BaF3 cell lines stably transfected with kinase) (Homo sapiens, UniProt P00533, T790M, form not given)
T4 construct: other: BaF3 cells stably transfected with EGFR Δ19Del/T790M; MTS, 48 h; other: BaF3 cell line stably transfected with EGFR Δ19Del/T790M; MTS, 48
Procedure: as §1, §2, §3, §4, §5

[5] = target: T5, various mutants of kinase EGFR (BaF3 cell lines stably transfected with kinase) (Homo sapiens, UniProt P00533, L858R)
T5 construct: expressed in transfected cells; host or cells: BaF3
T5 sequence (P00533 25-1210 L858R): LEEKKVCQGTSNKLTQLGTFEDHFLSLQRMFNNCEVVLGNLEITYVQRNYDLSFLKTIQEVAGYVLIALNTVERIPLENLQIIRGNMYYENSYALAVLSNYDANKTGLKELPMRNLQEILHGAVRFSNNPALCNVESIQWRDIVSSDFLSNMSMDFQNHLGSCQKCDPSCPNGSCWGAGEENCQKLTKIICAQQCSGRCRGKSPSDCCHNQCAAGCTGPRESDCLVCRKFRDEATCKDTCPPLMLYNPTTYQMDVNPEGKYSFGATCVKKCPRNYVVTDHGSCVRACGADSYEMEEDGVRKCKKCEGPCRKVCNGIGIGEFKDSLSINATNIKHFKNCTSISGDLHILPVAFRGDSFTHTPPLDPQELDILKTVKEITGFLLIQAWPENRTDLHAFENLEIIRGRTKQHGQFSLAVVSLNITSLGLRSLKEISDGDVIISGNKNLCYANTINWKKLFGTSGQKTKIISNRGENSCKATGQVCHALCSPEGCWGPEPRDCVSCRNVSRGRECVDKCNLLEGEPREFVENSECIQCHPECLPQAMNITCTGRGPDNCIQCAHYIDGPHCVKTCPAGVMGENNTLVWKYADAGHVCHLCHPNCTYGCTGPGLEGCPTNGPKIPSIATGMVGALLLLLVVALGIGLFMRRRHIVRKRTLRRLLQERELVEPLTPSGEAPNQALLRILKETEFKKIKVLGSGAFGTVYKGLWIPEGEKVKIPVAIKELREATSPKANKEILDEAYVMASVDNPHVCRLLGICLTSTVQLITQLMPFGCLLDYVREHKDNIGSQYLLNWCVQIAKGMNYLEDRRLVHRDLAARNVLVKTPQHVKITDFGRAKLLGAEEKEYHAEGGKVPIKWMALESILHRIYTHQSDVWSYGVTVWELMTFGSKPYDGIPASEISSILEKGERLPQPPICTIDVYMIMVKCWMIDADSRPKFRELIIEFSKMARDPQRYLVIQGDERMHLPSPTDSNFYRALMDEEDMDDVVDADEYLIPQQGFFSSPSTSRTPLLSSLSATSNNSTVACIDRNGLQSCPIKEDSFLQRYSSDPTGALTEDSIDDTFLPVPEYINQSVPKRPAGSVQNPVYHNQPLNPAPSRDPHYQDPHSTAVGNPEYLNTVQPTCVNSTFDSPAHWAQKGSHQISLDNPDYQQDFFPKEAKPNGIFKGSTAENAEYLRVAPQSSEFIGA
Procedure: as §1, §2, §3, §4, §5

[6] = target: T6, various mutants of kinase EGFR (BaF3 cell lines stably transfected with kinase) (Homo sapiens, UniProt P00533, L858R/T790M)
T6 construct: expressed in transfected cells; host or cells: BaF3
T6 sequence (P00533 25-1210 T790M/L858R): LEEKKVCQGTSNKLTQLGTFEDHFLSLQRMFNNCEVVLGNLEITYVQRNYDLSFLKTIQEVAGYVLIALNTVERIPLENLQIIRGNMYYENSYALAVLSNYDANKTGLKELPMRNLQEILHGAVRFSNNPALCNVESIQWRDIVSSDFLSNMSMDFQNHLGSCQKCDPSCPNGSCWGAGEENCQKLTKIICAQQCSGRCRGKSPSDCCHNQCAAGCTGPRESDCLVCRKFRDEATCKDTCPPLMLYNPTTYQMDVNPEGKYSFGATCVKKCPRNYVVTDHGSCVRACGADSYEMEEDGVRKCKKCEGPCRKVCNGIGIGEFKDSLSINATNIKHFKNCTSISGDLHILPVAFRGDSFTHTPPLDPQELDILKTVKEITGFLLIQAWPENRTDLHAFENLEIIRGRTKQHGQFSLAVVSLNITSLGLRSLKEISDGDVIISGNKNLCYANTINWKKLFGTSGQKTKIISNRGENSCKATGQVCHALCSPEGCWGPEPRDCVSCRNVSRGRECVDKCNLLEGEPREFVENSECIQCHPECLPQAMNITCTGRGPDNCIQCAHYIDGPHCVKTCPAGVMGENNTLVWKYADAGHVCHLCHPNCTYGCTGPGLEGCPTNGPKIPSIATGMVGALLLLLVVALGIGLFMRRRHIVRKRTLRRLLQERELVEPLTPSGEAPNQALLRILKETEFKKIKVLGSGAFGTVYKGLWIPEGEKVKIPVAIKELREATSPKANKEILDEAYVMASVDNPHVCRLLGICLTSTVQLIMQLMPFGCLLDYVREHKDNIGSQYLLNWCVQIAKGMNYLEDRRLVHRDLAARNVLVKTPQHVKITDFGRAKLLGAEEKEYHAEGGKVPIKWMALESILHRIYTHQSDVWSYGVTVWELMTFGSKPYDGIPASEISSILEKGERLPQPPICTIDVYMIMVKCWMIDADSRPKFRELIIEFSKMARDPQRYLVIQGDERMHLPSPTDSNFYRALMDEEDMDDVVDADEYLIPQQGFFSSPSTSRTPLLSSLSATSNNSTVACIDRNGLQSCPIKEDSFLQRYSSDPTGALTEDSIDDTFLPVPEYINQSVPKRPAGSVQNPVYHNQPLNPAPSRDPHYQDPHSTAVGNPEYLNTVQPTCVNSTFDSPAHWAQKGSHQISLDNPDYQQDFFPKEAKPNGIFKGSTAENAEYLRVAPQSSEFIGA
Procedure: as §1, §2, §3, §4, §5

[7] = BaF3 cells stably transfected with EGFR L858R/T790M/C797S, read-out: IC50, growth inhibition, L858R/T790M/C797S
[8] = BaF3 cells stably transfected with EGFR Δ19Del, read-out: IC50, growth inhibition, Δ19Del
[9] = BaF3 cells stably transfected with EGFR Δ19Del/T790M/C797S, read-out: IC50, growth inhibition, Δ19Del/T790M/C797S
[10] = BaF3 cells stably transfected with EGFR Δ19Del/T790M, read-out: IC50, growth inhibition, Δ19Del/T790M
[11] = BaF3 cells stably transfected with EGFR L858R, read-out: IC50, growth inhibition, L858R
[12] = BaF3 cells stably transfected with EGFR L858R/T790M, read-out: IC50, growth inhibition, L858R/T790M
[13] = BaF3 cell line stably transfected with EGFR L858R/T790M/C797S, read-out: L858R/T790M/ C797S growth inhibitory activity IC50
[14] = BaF3 cell line stably transfected with EGFR Δ19Del, read-out: Δ19Del growth inhibitory activity IC50
[15] = BaF3 cell line stably transfected with EGFR Δ19Del/T790M/C797S, read-out: Δ19Del/T790M/ C797S growth inhibitory activity IC50
[16] = BaF3 cell line stably transfected with EGFR Δ19Del/T790M, read-out: Δ19Del/ T790M growth inhibitory activity IC50
[17] = BaF3 cell line stably transfected with EGFR L858R, read-out: L858R growth inhibitory activity IC50
[18] = BaF3 cell line stably transfected with EGFR L858R/T790M, read-out: L858R/ T790M growth inhibitory activity IC50

Structure (SMILES)	IC50 [1, 7]	IC50 [2, 8]	IC50 [3, 9]	IC50 [4, 10]	IC50 [5, 11]	IC50 [6, 12]	IC50 [1, 13]	IC50 [2, 14]	IC50 [3, 15]	IC50 [4, 16]	IC50 [5, 17]	IC50 [6, 18]
COc1cc(C(=O)N2CCC(N3CCN(C)CC3)CC2)ccc1Nc1ncc(Br)c(Nc2ccc3nccnc3c2N(C)S(C)(=O)=O)n1 [Compound I-48]	≤ 0.05 µM	0.05 to 0.5 µM	≤ 0.05 µM	0.05 to 0.5 µM	0.05 to 0.5 µM	0.05 to 0.5 µM	–	–	–	–	–	–
COc1cc(N2CCC(N3CCN(C)CC3)CC2)ccc1Nc1nc(Nc2ccc3nccnc3c2N(C)S(C)(=O)=O)c2cc[nH]c2n1 [II-2-22]	–	–	–	–	–	–	0.05 to 0.5 µM	0.05 to 0.5 µM	≤ 0.05 µM	0.05 to 0.5 µM	0.5 to 2.5 µM	≤ 0.05 µM
COc1ccc(N2CCC(O)CC2)cc1Nc1ncc(C(C)C)c(Nc2ccc3nccnc3c2N(C)S(C)(=O)=O)n1 [Compound I-364]	–	–	–	–	–	–	≤ 0.05 µM	≤ 0.05 µM	0.05 to 0.5 µM	≤ 0.05 µM	0.05 to 0.5 µM	0.05 to 0.5 µM
CN(c1c(Nc2nc(Nc3cnn(C)c3)ncc2Br)ccc2nccnc12)S(C)(=O)=O [Compound I-67]	≤ 0.05 µM	≤ 0.05 µM	0.05 to 0.5 µM	≤ 0.05 µM	0.05 to 0.5 µM	≤ 0.05 µM	–	–	–	–	–	–
COc1cc(N2CCC(N3CCN(C)CC3)CC2)c(C)cc1Nc1ncc([N+](=O)[O-])c(Nc2ccc3nccnc3c2N(C)S(C)(=O)=O)n1 [Compound I-31]	≤ 0.05 µM	0.05 to 0.5 µM	≤ 0.05 µM	0.05 to 0.5 µM	≤ 0.05 µM	≤ 0.05 µM	–	–	–	–	–	–
CCc1cc(Nc2ncc(Br)c(Nc3ccc4nccnc4c3N(CC)S(C)(=O)=O)n2)c(OC)cc1N1CCN(C)CC1 [Compound I-301]	≤ 0.05 µM	0.05 to 0.5 µM	≤ 0.05 µM	≤ 0.05 µM	≤ 0.05 µM	≤ 0.05 µM	–	–	–	–	–	–
CCN(c1c(Nc2nc(Nc3cc(C)c(N4CCN(C)CC4)cc3OC)ncc2Br)ccc2nccnc12)S(C)(=O)=O [Compound I-300]	≤ 0.05 µM	0.05 to 0.5 µM	≤ 0.05 µM	0.05 to 0.5 µM	0.05 to 0.5 µM	≤ 0.05 µM	–	–	–	–	–	–
C=Cc1cc(Nc2nc(Nc3ccc4nccnc4c3N(C)S(C)(=O)=O)c3sccc3n2)c(OC(F)(F)F)cc1N1CCC(N2CCN(C)CC2)CC1 [II-1-9]	–	–	–	–	–	–	0.05 to 0.5 µM	0.5 to 2.5 µM	≤ 0.05 µM	0.05 to 0.5 µM	0.5 to 2.5 µM	0.05 to 0.5 µM
COc1cc(N2CCC(N(C)C)C2)c(C)cc1Nc1ncc(Cl)c(Nc2ccc3nccnc3c2N(C2CC2)S(C)(=O)=O)n1 (stereo not drawn) [Compound I-246]	≤ 0.05 µM	≤ 0.05 µM	≤ 0.05 µM	≤ 0.05 µM	≤ 0.05 µM	≤ 0.05 µM	–	–	–	–	–	–
CCc1cc(Nc2nc(Nc3ccc4nccnc4c3N(C)S(C)(=O)=O)c3sccc3n2)c(OC)cc1N1CCC(N(C)C)C1 (stereo not drawn) [II-1-17]	–	–	–	–	–	–	0.05 to 0.5 µM	0.05 to 0.5 µM	0.05 to 0.5 µM	0.05 to 0.5 µM	0.05 to 0.5 µM	0.05 to 0.5 µM

Now from value to compound:

IC50 [1, 7]	IC50 [2, 8]	IC50 [3, 9]	IC50 [4, 10]	IC50 [5, 11]	IC50 [6, 12]	IC50 [1, 13]	IC50 [2, 14]	IC50 [3, 15]	IC50 [4, 16]	IC50 [5, 17]	IC50 [6, 18]	Structure (SMILES)
≤ 0.05 µM	0.05 to 0.5 µM	≤ 0.05 µM	0.05 to 0.5 µM	≤ 0.05 µM	0.05 to 0.5 µM	–	–	–	–	–	–	CCc1cc(Nc2ncc(C3CC3)c(Nc3ccc4nccnc4c3N(C)S(C)(=O)=O)n2)c(OC)nc1N1CCC(N2CCN(C)CC2)CC1 [Compound I-270]
–	–	–	–	–	–	0.05 to 0.5 µM	0.05 to 0.5 µM	≤ 0.05 µM	≤ 0.05 µM	0.05 to 0.5 µM	0.05 to 0.5 µM	CCc1cc(Nc2ncc(CC)c(Nc3ccc4nccnc4c3N(C)S(C)(=O)=O)n2)c(OC(F)(F)F)cc1N1CCC(N2CCN(C)CC2)CC1 [Compound I-321]
≤ 0.05 µM	≤ 0.05 µM	≤ 0.05 µM	≤ 0.05 µM	0.05 to 0.5 µM	≤ 0.05 µM	–	–	–	–	–	–	COc1cc(N2CCC(N(C)C)CC2)c(C)cc1Nc1ncc([N+](=O)[O-])c(Nc2ccc3nccnc3c2N(C)S(C)(=O)=O)n1 [Compound I-192]
–	–	–	–	–	–	0.5 to 2.5 µM	0.5 to 2.5 µM	0.5 to 2.5 µM	0.5 to 2.5 µM	0.5 to 2.5 µM	0.5 to 2.5 µM	CCc1cc(Nc2nc(Nc3ccc4nccnc4c3N(C)S(C)(=O)=O)c3[nH]ccc3n2)c(OC)cc1N1CCC(N(C)C)C1 (stereo not drawn) [II-1-36]
≤ 0.05 µM	0.05 to 0.5 µM	≤ 0.05 µM	≤ 0.05 µM	0.05 to 0.5 µM	≤ 0.05 µM	–	–	–	–	–	–	C=Cc1cc(Nc2ncc(Cl)c(Nc3ccc4nccnc4c3N(CC)S(C)(=O)=O)n2)c(OC(F)(F)F)cc1N1CCC(N2CCN(C)CC2)CC1 [Compound I-228]
0.05 to 0.5 µM	0.5 to 2.5 µM	≤ 0.05 µM	0.05 to 0.5 µM	0.5 to 2.5 µM	0.05 to 0.5 µM	–	–	–	–	–	–	CCc1cc(Nc2ncc(Cl)c(Nc3ccc4nccnc4c3N(C)S(=O)(=O)C(F)(F)F)n2)c(OC)cc1N1CCC(N(C)C)C1 (stereo not drawn) [Compound I-133]
0.05 to 0.5 µM	0.5 to 2.5 µM	≤ 0.05 µM	0.05 to 0.5 µM	0.5 to 2.5 µM	0.05 to 0.5 µM	–	–	–	–	–	–	CCc1cc(Nc2ncc(Cl)c(Nc3ccc4nccnc4c3N(C)S(=O)(=O)C(F)(F)F)n2)c(OC)cc1N1CCC(N(C)C)CC1 [Compound I-132]
–	–	–	–	–	–	0.05 to 0.5 µM	0.05 to 0.5 µM	0.05 to 0.5 µM	≤ 0.05 µM	0.05 to 0.5 µM	≤ 0.05 µM	CCc1cc(Nc2ncc(C(C)C)c(Nc3ccc4nccnc4c3N(C)S(C)(=O)=O)n2)c(OC)cc1N1CCN(C)CC1 [Compound I-329]
≤ 0.05 µM	≤ 0.05 µM	≤ 0.05 µM	≤ 0.05 µM	≤ 0.05 µM	0.05 to 0.5 µM	–	–	–	–	–	–	CCc1cc(Nc2ncc(C3CC3)c(Nc3ccc4nccnc4c3N(C)S(C)(=O)=O)n2)c(OC)cc1N1CCC(N(C)C)C1 (stereo not drawn) [Compound I-275]
0.05 to 0.5 µM	0.5 to 2.5 µM	≤ 0.05 µM	0.05 to 0.5 µM	0.5 to 2.5 µM	0.05 to 0.5 µM	–	–	–	–	–	–	CCc1cc(Nc2ncc(Br)c(Nc3ccc4nccnc4c3N(C)S(=O)(=O)C(F)(F)F)n2)c(OC)nc1N1CCC(N2CCN(C)CC2)CC1 [Compound I-257]
–	–	–	–	–	–	0.05 to 0.5 µM	0.05 to 0.5 µM	0.05 to 0.5 µM	0.05 to 0.5 µM	0.05 to 0.5 µM	≤ 0.05 µM	COc1ccc(N2CCNCC2)cc1Nc1ncc(Br)c(Nc2ccc3nccnc3c2N(C)S(C)(=O)=O)n1 [Compound I-352]
≤ 0.05 µM	0.05 to 0.5 µM	≤ 0.05 µM	≤ 0.05 µM	≤ 0.05 µM	≤ 0.05 µM	–	–	–	–	–	–	CCN(c1c(Nc2nc(Nc3ccc(N4CCC(N5CCN(C)CC5)CC4)cc3OC)ncc2Br)ccc2nccnc12)S(C)(=O)=O [Compound I-211]
–	–	–	–	–	–	0.05 to 0.5 µM	0.5 to 2.5 µM	0.05 to 0.5 µM	0.05 to 0.5 µM	0.5 to 2.5 µM	0.05 to 0.5 µM	CC(C)n1ccc(Nc2ncc(Br)c(Nc3ccc4nccnc4c3N(C)S(C)(=O)=O)n2)n1 [Compound I-384]
